Test results reported in patent EP0726261A1, “Herbidical 1,2,4 thiadiazoles” (American Cyanamid Company, priority 1995, dated 1996).

Experiments:
Type in all cases: in vivo
Triticum aestivum [1] = test: Preemergence herbicidal activity (Example 67); design: herbicide rating, TRZAW: scale not given here; conditions: pre; 800 g/ha; rated about 1-3 weeks after treatment
Method in brief: (§1)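 Soil-surface spray, 800g/ha, 400 L/ha, 3 bar; compound in acetone + 0.5% alkylphenol/ethylene oxide condensate, water-diluted. Substrate: peat/volcanic clay/bark/polyamide mix 1:3 with loamy sand. Greenhouse; visual rating ~1-3 wk post-treatment.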

Hordeum vulgare [2] = test: Preemergence herbicidal activity (Example 67); design: herbicide rating, HORVW: scale not given here; conditions: pre; 800 g/ha; rated about 1-3 weeks after treatment
Method in brief: as §1

Alopecurus myosuroides [3] = test: Preemergence herbicidal activity (Example 67); design: herbicide rating, ALOMY: scale not given here; conditions: pre; 800 g/ha; rated about 1-3 weeks after treatment
Method in brief: as §1

Setaria viridis [4] = test: Preemergence herbicidal activity (Example 67); design: herbicide rating, SETVI: scale not given here; conditions: pre; 800 g/ha; rated about 1-3 weeks after treatment
Method in brief: as §1

Abutilon theophrasti [5] = test: Preemergence herbicidal activity (Example 67); conditions: pre; 800 g/ha; rated about 1-3 weeks after treatment
Method in brief: as §1

Amaranthus retroflexus [6] = test: Preemergence herbicidal activity (Example 67); conditions: pre; 800 g/ha; rated about 1-3 weeks after treatment
Method in brief: as §1

Chenopodium album [7] = test: Preemergence herbicidal activity (Example 67); conditions: pre; 800 g/ha; rated about 1-3 weeks after treatment
Method in brief: as §1

Galium aparine [8] = test: Preemergence herbicidal activity (Example 67); conditions: pre; 800 g/ha; rated about 1-3 weeks after treatment
Method in brief: as §1

Helianthus annuus [9] = test: Preemergence herbicidal activity (Example 67); conditions: pre; 800 g/ha; rated about 1-3 weeks after treatment
Method in brief: as §1

Ipomoea hederacea [10] = test: Preemergence herbicidal activity (Example 67); conditions: pre; 800 g/ha; rated about 1-3 weeks after treatment
Method in brief: as §1

Veronica persica [11] = test: Preemergence herbicidal activity (Example 67); conditions: pre; 800 g/ha; rated about 1-3 weeks after treatment
Method in brief: as §1

Zea mays [12] = test: Preemergence herbicidal activity (Example 67); conditions: pre; 800 g/ha; rated about 1-3 weeks after treatment
Method in brief: as §1

Abutilon theophrasti [13] = test: Postemergence herbicidal activity (Example 67); conditions: pos; 800 g/ha; rated after 10-21 days
Method in brief: (§2)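 Postemergence spray, 800g/ha, 400 L/ha spray volume, 3 bar; 3-6 wk seedlings; acetone + 0.5% Triton X-155, water-diluted; greenhouse; visual rating at 10-21 d.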

Alopecurus myosuroides [14] = test: Postemergence herbicidal activity (Example 67); conditions: pos; 800 g/ha; rated after 10-21 days
Method in brief: as §2

Amaranthus retroflexus [15] = test: Postemergence herbicidal activity (Example 67); conditions: pos; 800 g/ha; rated after 10-21 days
Method in brief: as §2

Chenopodium album [16] = test: Postemergence herbicidal activity (Example 67); conditions: pos; 800 g/ha; rated after 10-21 days
Method in brief: as §2

Galium aparine [17] = test: Postemergence herbicidal activity (Example 67); conditions: pos; 800 g/ha; rated after 10-21 days
Method in brief: as §2

Helianthus annuus [18] = test: Postemergence herbicidal activity (Example 67); conditions: pos; 800 g/ha; rated after 10-21 days
Method in brief: as §2

Hordeum vulgare [19] = test: Postemergence herbicidal activity (Example 67); conditions: pos; 800 g/ha; rated after 10-21 days
Method in brief: as §2

Ipomoea hederacea [20] = test: Postemergence herbicidal activity (Example 67); conditions: pos; 800 g/ha; rated after 10-21 days
Method in brief: as §2

Setaria viridis [21] = test: Postemergence herbicidal activity (Example 67); conditions: pos; 800 g/ha; rated after 10-21 days
Method in brief: as §2

Triticum aestivum [22] = test: Postemergence herbicidal activity (Example 67); conditions: pos; 800 g/ha; rated after 10-21 days
Method in brief: as §2

Veronica persica [23] = test: Postemergence herbicidal activity (Example 67); conditions: pos; 800 g/ha; rated after 10-21 days
Method in brief: as §2

Zea mays [24] = test: Postemergence herbicidal activity (Example 67); conditions: pos; 800 g/ha; rated after 10-21 days
Method in brief: as §2

SMILES	herbicide rating, TRZAW (Triticum aestivum [1])	herbicide rating, HORVW (Hordeum vulgare [2])	herbicide rating, ALOMY (Alopecurus myosuroides [3])	herbicide rating, SETVI (Setaria viridis [4])	herbicide rating, ABUTH (Abutilon theophrasti [5])	herbicide rating, AMARE (Amaranthus retroflexus [6])	herbicide rating, CHEAL (Chenopodium album [7])	herbicide rating, GALAP (Galium aparine [8])	herbicide rating, HELAN (Helianthus annuus [9])	herbicide rating, IPOHE (Ipomoea hederacea [10])	herbicide rating, VERPE (Veronica persica [11])	herbicide rating, ZEAMX (Zea mays [12])	herbicide rating, ABUTH (Abutilon theophrasti [13])	herbicide rating, ALOMY (Alopecurus myosuroides [14])	herbicide rating, AMARE (Amaranthus retroflexus [15])	herbicide rating, CHEAL (Chenopodium album [16])	herbicide rating, GALAP (Galium aparine [17])	herbicide rating, HELAN (Helianthus annuus [18])	herbicide rating, HORVW (Hordeum vulgare [19])	herbicide rating, IPOHE (Ipomoea hederacea [20])	other results
C[C@H](NC(=O)c1nc(-c2ccc(Cl)cc2)ns1)c1ccccc1 [Example 27, (S)-3-(4-Chlorophenyl)-[1,2,4]thiadiazole-5-carboxylic acid, 1-(phenylethyl) amide]	0	0	0	0	0	0	2 (6-15%)	0	3 (16-29%)	1 (1-5%)	7 (80-90%)	0	6 (65-79%)	4 (30-44%)	5 (45-64%)	4 (30-44%)	5 (45-64%)	8 (91-99%)	2 (6-15%)	7 (80-90%)	herbicide rating, SETVI (Setaria viridis [21]): 8 (91-99%); herbicide rating, TRZAW (Triticum aestivum [22]): 2 (6-15%); herbicide rating, VERPE (Veronica persica [23]): 7 (80-90%); herbicide rating, ZEAMX (Zea mays [24]): 5 (45-64%)
O=C(NCc1cccs1)c1nc(C=Cc2ccccc2)ns1 [Example 28]	0	0	0	0	0	0	0	0	0	0	0	0	1 (1-5%)	1 (1-5%)	0	2 (6-15%)	0	0	0	0	herbicide rating, SETVI (Setaria viridis [21]): 3 (16-29%); herbicide rating, TRZAW (Triticum aestivum [22]): 0; herbicide rating, VERPE (Veronica persica [23]): 2 (6-15%); herbicide rating, ZEAMX (Zea mays [24]): 0
C[C@H](NC(=O)c1nc(C=Cc2ccccc2)ns1)c1ccccc1 [Example 30]	0	0	0	0	2 (6-15%)	0	0	0	0	0	0	0	3 (16-29%)	1 (1-5%)	2 (6-15%)	4 (30-44%)	4 (30-44%)	2 (6-15%)	0	4 (30-44%)	herbicide rating, SETVI (Setaria viridis [21]): 3 (16-29%); herbicide rating, TRZAW (Triticum aestivum [22]): 2 (6-15%); herbicide rating, VERPE (Veronica persica [23]): 0; herbicide rating, ZEAMX (Zea mays [24]): 0
CCCCc1nsc(C(=O)NCc2cccs2)n1 [Example 31]	0	0	0	0	0	0	0	0	0	0	0	0	1 (1-5%)	2 (6-15%)	0	4 (30-44%)	2 (6-15%)	2 (6-15%)	0	3 (16-29%)	herbicide rating, SETVI (Setaria viridis [21]): 4 (30-44%); herbicide rating, TRZAW (Triticum aestivum [22]): 2 (6-15%); herbicide rating, VERPE (Veronica persica [23]): 0; herbicide rating, ZEAMX (Zea mays [24]): 1 (1-5%)
CCCCc1nsc(C(=O)N[C@@H](C)c2ccccc2)n1 [Example 32]	0	0	0	0	0	0	5 (45-64%)	0	0	0	5 (45-64%)	0	5 (45-64%)	2 (6-15%)	3 (16-29%)	5 (45-64%)	6 (65-79%)	5 (45-64%)	2 (6-15%)	5 (45-64%)	herbicide rating, SETVI (Setaria viridis [21]): 7 (80-90%); herbicide rating, TRZAW (Triticum aestivum [22]): 3 (16-29%); herbicide rating, VERPE (Veronica persica [23]): 0; herbicide rating, ZEAMX (Zea mays [24]): 0
COCCc1nsc(C(=O)N[C@@H](C)c2ccccc2)n1 [Example 34]	0	0	0	0	0	0	0	0	0	0	3 (16-29%)	0	1 (1-5%)	3 (16-29%)	0	2 (6-15%)	1 (1-5%)	2 (6-15%)	0	4 (30-44%)	herbicide rating, SETVI (Setaria viridis [21]): 3 (16-29%); herbicide rating, TRZAW (Triticum aestivum [22]): 3 (16-29%); herbicide rating, VERPE (Veronica persica [23]): 2 (6-15%); herbicide rating, ZEAMX (Zea mays [24]): 0
